Reference: ChEMBL document CHEMBL5303573, “Mapping human microbiome drug metabolism by gut bacteria and their genes” (Nature, 2019)

How the values were obtained:
[1] = The drug is tested on Collinsella intestinalis strain: DSM13280 for biotransformation. The drug concentrations were measured before and after a 12-h incubation by liquid-chromatography-coupled mass spectrometry (LC–MS); details: 2 µM
[2] = The drug is tested on Bacteroides fragilis strain: HMW615 for biotransformation. The drug concentrations were measured before and after a 12-h incubation by liquid-chromatography-coupled mass spectrometry (LC–MS); details: 2 µM
[3] = The drug is tested on Bacteroides fragilis strain: ATCC43859 for biotransformation. The drug concentrations were measured before and after a 12-h incubation by liquid-chromatography-coupled mass spectrometry (LC–MS); details: 2 µM
[4] = The drug is tested on Odoribacter splanchnicus strain: fecal isolate for biotransformation. The drug concentrations were measured before and after a 12-h incubation by liquid-chromatography-coupled mass spectrometry (LC–MS); details: 2 µM
[5] = The drug is tested on Anaerococcus hydrogenalis strain: DSM7454 for biotransformation. The drug concentrations were measured before and after a 12-h incubation by liquid-chromatography-coupled mass spectrometry (LC–MS); details: 2 µM
[6] = The drug is tested on Blautia luti strain: DSM14534 for biotransformation. The drug concentrations were measured before and after a 12-h incubation by liquid-chromatography-coupled mass spectrometry (LC–MS); type: ADME; design: dose 2 uM, timepoint 0 vs 12 hours; details: 2 µM
[7] = The drug is tested on Clostridium scindens strain: ATCC35704 for biotransformation. The drug concentrations were measured before and after a 12-h incubation by liquid-chromatography-coupled mass spectrometry (LC–MS); details: 2 µM
[8] = The drug is tested on Clostridium symbiosum strain: ATCC14940 for biotransformation. The drug concentrations were measured before and after a 12-h incubation by liquid-chromatography-coupled mass spectrometry (LC–MS); details: 2 µM
[9] = The drug is tested on Coprococcus comes strain: ATCC27758 for biotransformation. The drug concentrations were measured before and after a 12-h incubation by liquid-chromatography-coupled mass spectrometry (LC–MS); type: ADME; design: dose 2 uM, timepoint 0 vs 12 hours; details: 2 µM
[10] = The drug is tested on Dorea formicigenerans strain: ATCC27755 for biotransformation. The drug concentrations were measured before and after a 12-h incubation by liquid-chromatography-coupled mass spectrometry (LC–MS); details: 2 µM
[11] = The drug is tested on Eubacterium hallii strain: DSM3353 for biotransformation. The drug concentrations were measured before and after a 12-h incubation by liquid-chromatography-coupled mass spectrometry (LC–MS); details: anaerobutyricum hallii, 2 µM
[12] = The drug is tested on Ruminococcus gnavus strain: ATCC29149 for biotransformation. The drug concentrations were measured before and after a 12-h incubation by liquid-chromatography-coupled mass spectrometry (LC–MS); details: mediterraneibacter gnavus, 2 µM
[13] = The drug is tested on Ruminococcus lactaris strain: ATCC29176 for biotransformation. The drug concentrations were measured before and after a 12-h incubation by liquid-chromatography-coupled mass spectrometry (LC–MS); details: 2 µM
[14] = bacteroides fragilis, 12 h, 2 µM
Description: The drug is tested on Bacteroides fragilis strain: NCTC 9343 for biotransformation. The drug concentrations were measured before and after a 12-h incubation by liquid-chromatography-coupled mass spectrometry (LC–MS)

[15] = akkermansia muciniphila, 12 h, 2 µM
Description: The drug is tested on Akkermansia muciniphila strain: ATCC BAA-835 for biotransformation. The drug concentrations were measured before and after a 12-h incubation by liquid-chromatography-coupled mass spectrometry (LC–MS)

[16] = The drug is tested on Edwardsiella tarda strain: ATCC23685 for biotransformation. The drug concentrations were measured before and after a 12-h incubation by liquid-chromatography-coupled mass spectrometry (LC–MS); details: 2 µM
[17] = The drug is tested on Providencia rettgeri strain: DSM1131 for biotransformation. The drug concentrations were measured before and after a 12-h incubation by liquid-chromatography-coupled mass spectrometry (LC–MS); type: ADME; design: dose 2 uM, timepoint 0 vs 12 hours; details: 2 µM
[18] = bacteroides stercoris, 12 h, 2 µM
Description: The drug is tested on Bacteroides stercoris strain: ATCC43183 for biotransformation. The drug concentrations were measured before and after a 12-h incubation by liquid-chromatography-coupled mass spectrometry (LC–MS)

[19] = segatella copri, 12 h, 2 µM
Description: The drug is tested on Prevotella copri strain: DSM18205 for biotransformation. The drug concentrations were measured before and after a 12-h incubation by liquid-chromatography-coupled mass spectrometry (LC–MS)

Row | SMILES | Bacterial Biotransformation [1] | Bacterial Biotransformation [2] | Bacterial Biotransformation [3] | Bacterial Biotransformation [4] | Bacterial Biotransformation [5] | Bacterial Biotransformation [6] | Bacterial Biotransformation [7] | Bacterial Biotransformation [8] | Bacterial Biotransformation [9] | Bacterial Biotransformation [10] | Bacterial Biotransformation [11] | Bacterial Biotransformation [12] | Bacterial Biotransformation [13] | Bacterial Biotransformation [14] | Bacterial Biotransformation [15] | Bacterial Biotransformation [16] | Bacterial Biotransformation [17] | Bacterial Biotransformation [18] | Bacterial Biotransformation [19]
1 | Cc1cc(C)cc(OCC2CNC(=O)O2)c1 (configuration not stated) [METAXALONE] | Compound NOT metabolized | Compound metabolized | Compound metabolized | Compound NOT metabolized | Compound NOT metabolized | Compound NOT metabolized | Compound NOT metabolized | Compound NOT metabolized | Compound NOT metabolized | Compound NOT metabolized | Compound NOT metabolized | Compound NOT metabolized | Compound NOT metabolized | Compound metabolized | Compound NOT metabolized | – | – | – | –
2 | CCC(=O)NCC[C@@H]1CCc2ccc3c(c21)CCO3 [RAMELTEON] | Compound NOT metabolized | – | Compound metabolized | Compound metabolized | Compound NOT metabolized | Compound NOT metabolized | Compound NOT metabolized | Compound NOT metabolized | Compound NOT metabolized | Compound NOT metabolized | Compound NOT metabolized | Compound NOT metabolized | Compound NOT metabolized | Compound metabolized | – | Compound NOT metabolized | Compound NOT metabolized | Compound metabolized | Compound metabolized
3 | C=C[C@H]1CN2CC[C@H]1C[C@H]2[C@H](O)c1ccnc2ccc(OC)cc12.C=C[C@H]1CN2CC[C@H]1C[C@H]2[C@H](O)c1ccnc2ccc(OC)cc12.O.O.O=S(=O)(O)O [QUININE SULFATE] | Compound NOT metabolized | Compound NOT metabolized | – | Compound NOT metabolized | Compound NOT metabolized | Compound NOT metabolized | – | – | Compound NOT metabolized | Compound NOT metabolized | Compound NOT metabolized | Compound NOT metabolized | – | – | Compound NOT metabolized | Compound NOT metabolized | Compound NOT metabolized | Compound NOT metabolized | Compound NOT metabolized
4 | O=C(O[C@H]1C[C@H]2CC[C@@H](C1)[N+]21CCCC1)C(O)(c1ccccc1)c1ccccc1.[Cl-] [TROSPIUM CHLORIDE] | Compound NOT metabolized | – | – | – | Compound NOT metabolized | Compound NOT metabolized | Compound NOT metabolized | Compound NOT metabolized | Compound NOT metabolized | Compound NOT metabolized | Compound NOT metabolized | Compound NOT metabolized | Compound NOT metabolized | Compound NOT metabolized | Compound NOT metabolized | Compound NOT metabolized | Compound NOT metabolized | Compound NOT metabolized | Compound NOT metabolized
